According to US20250114345A1, “COMPOUNDS AND COMPOSITIONS AS CBP/P300 DEGRADERS AND USES THEREOF” (Oncopia Therapeutics, Inc. d/b/a/ SK Life Science Labs, priority 2023, published 2025):

Molecular target: T1, p300 (Homo sapiens, UniProt Q09472)
T1 construct: host or cells: A549 P300 HiBit cells
Experiment: P300 degradation, HiBit technology in A549 P300 HiBit cells (2 h)
Type: cell-based
Conditions: 2 hrs post treatment; for Dmax: A549, A549 P300 HiBit cells; for DC50: A549 P300 HiBit cells
Method in brief: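 Endogenously HiBiT-tagged A549 cells are plated, left overnight, then treated with a compound dilution series at 37 °C and 5% CO2. At the set time, lytic detection buffer is added and plates are shaken 10 min at room temperature before luminescence is measured to derive potency and Dmax.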

T1 sequence (Q09472 whole entry): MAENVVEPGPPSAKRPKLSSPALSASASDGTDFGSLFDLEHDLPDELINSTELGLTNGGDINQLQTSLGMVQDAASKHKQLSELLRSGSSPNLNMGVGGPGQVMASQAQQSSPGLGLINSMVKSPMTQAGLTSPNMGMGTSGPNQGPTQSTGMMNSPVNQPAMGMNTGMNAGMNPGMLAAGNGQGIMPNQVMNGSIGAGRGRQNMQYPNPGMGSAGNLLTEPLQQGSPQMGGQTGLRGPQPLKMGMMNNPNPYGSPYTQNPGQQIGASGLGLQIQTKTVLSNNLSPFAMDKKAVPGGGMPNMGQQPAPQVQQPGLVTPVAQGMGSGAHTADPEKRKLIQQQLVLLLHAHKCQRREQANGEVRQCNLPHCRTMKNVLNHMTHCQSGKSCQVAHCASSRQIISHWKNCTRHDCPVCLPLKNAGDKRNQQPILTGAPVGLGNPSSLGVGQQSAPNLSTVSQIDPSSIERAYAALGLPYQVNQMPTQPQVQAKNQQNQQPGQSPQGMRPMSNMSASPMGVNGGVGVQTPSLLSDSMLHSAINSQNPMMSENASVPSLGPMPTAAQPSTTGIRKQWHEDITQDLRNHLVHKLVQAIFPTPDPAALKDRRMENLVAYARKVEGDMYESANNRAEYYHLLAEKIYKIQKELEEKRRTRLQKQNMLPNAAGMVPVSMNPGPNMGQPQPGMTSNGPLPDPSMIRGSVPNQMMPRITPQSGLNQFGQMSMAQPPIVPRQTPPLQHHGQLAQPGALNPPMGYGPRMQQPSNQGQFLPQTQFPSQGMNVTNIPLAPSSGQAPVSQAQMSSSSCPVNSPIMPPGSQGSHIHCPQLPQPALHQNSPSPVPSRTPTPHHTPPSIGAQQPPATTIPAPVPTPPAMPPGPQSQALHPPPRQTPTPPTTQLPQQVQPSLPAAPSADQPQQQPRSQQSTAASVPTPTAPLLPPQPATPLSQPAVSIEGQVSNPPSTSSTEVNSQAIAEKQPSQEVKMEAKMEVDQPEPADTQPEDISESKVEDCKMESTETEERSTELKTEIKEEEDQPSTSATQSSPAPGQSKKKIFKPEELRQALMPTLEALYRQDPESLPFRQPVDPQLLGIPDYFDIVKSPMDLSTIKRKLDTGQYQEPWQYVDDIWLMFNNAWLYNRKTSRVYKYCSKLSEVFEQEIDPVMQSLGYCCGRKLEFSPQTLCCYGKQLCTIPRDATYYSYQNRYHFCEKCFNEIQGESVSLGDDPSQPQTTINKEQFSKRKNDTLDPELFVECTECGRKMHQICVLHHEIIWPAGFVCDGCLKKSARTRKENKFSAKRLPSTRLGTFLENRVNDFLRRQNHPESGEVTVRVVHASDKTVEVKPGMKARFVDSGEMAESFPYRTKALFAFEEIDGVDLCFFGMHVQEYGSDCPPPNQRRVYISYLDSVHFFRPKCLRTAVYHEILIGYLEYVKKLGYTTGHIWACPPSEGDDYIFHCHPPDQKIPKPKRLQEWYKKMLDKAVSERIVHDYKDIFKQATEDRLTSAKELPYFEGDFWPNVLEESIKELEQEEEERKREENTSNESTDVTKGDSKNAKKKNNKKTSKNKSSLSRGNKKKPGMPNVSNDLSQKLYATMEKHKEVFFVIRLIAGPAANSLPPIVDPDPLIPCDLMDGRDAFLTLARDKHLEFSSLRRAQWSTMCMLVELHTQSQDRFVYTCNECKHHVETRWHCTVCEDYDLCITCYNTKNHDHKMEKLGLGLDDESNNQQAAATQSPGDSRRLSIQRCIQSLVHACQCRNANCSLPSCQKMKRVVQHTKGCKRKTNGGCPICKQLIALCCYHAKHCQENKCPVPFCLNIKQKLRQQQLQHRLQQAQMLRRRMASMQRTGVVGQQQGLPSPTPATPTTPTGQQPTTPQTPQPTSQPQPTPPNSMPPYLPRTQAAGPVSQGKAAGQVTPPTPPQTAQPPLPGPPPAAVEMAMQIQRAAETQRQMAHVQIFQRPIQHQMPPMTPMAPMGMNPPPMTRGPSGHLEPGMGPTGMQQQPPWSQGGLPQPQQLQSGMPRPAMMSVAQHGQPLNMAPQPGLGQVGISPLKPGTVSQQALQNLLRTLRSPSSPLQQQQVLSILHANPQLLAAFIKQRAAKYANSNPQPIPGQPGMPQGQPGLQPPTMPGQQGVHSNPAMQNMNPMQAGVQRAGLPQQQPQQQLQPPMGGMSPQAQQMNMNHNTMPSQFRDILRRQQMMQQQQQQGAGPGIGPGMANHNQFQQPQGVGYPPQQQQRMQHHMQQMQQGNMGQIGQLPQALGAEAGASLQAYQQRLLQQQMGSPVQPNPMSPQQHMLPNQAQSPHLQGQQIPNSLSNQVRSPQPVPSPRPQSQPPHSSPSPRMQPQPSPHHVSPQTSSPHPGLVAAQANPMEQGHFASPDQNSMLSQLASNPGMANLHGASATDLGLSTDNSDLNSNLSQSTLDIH

Row | Dmax [%] | DC50 [nM] | Structure (SMILES)
1 | 60 to 79 | 10 to 99 | Cc1cc2cnn(C3CCC(=O)NC3=O)c2cc1C#CCNC(=O)c1ccc(-c2cc3cccc(-c4cc(C(C)C)c5c(c4)n(C)c(=O)n5C)c3cn2)cn1 (centres unmarked) [Example A8, N-(3-(1-(2,6-Dioxopiperidin-3-yl)-5-methyl-1H-indazol-6-yl)prop-2-yn-1-yl)-5-(8-(7-isopropyl-1,3-dimethyl-2-oxo-2,3-dihydro-1H-benzo[d]imidazol-5-yl)isoquinolin-3-yl)picolinamide]
2 | > 80 | 1 to 9.9 | Cc1cc(-c2ncc(N(C)c3cc(C(C)C)c4c(c3)n(C)c(=O)n4C)cc2Cl)cnc1C(=O)NCC#Cc1ccc2occ(C3CCC(=O)NC3=O)c2c1 (centres unmarked) [Example A116, 3-chloro-N-(3-(3-(2,6-dioxopiperidin-3-yl)benzofuran-5-yl)prop-2-yn-1-yl)-5-((7-isopropyl-1,3-dimethyl-2-oxo-2,3-dihydro-1H-benzo [d]imidazol-5-yl)(methyl)amino)-5′-methyl-[2,3′-bipyridine]-6′-carboxamide]
3 | 60 to 79 | 1 to 9.9 | CC(C)c1cc(-c2cccc3cc(-c4ccc(C(=O)NCC#Cc5cnc6cnn(C7CCC(=O)NC7=O)c6c5)nc4)ncc23)cc2c1n(C)c(=O)n2C (centres unmarked) [Example A20, N-(3-(1-(2,6-Dioxopiperidin-3-yl)-1H-pyrazolo[4,3-b]pyridin-6-yl)prop-2-yn-1-yl)-5-(8-(7-isopropyl-1,3-dimethyl-2-oxo-2,3-dihydro-1H-benzo[d]imidazol-5-yl)isoquinolin-3-yl)picolinamide]
4 | > 80 | 1 to 9.9 | Cc1cc2c(N3CCN(C)c4nc(-c5ccc(C(=O)NCC#Cc6cc7c(C8CCC(=O)NC8=O)cccc7o6)nc5)ncc43)cccc2n(C)c1=O (centres unmarked) [Example B65, 5-(5-(1,3-dimethyl-2-oxo-1,2-dihydroquinolin-5-yl)-8-methyl-5,6,7,8-tetrahydropteridin-2-yl)-N-(3-(4-(2,6-dioxopiperidin-3-yl)benzofuran-2-yl)prop-2-yn-1-yl)picolinamide]
5 | > 80 | 1 to 9.9 | Cc1cc2c(N3CCCc4nc(-c5ccc(C(=O)NCC#Cc6ccc7occ(C8CCC(=O)NC8=O)c7c6)nc5)ncc43)nc(N(C)C)cc2n(C)c1=O (centres unmarked) [Example B128, 5-(5-(7-(dimethylamino)-1,3-dimethyl-2-oxo-1,2-dihydro-1,6-naphthyridin-5-yl)-5,6,7,8-tetrahydropyrido[3,2-d]pyrimidin-2-yl)-N-(3-(3-(2,6-dioxopiperidin-3-yl)benzofuran-5-yl)prop-2-yn-1-yl)picolinamide]
6 | 60 to 79 | 10 to 99 | Cc1cc(-c2ccc(N(C)c3cc(C(C)C)c4c(c3)n(C)c(=O)n4C)cn2)cnc1C(=O)NCC#Cc1cc(NC2CCC(=O)NC2=O)nn1C (centres unmarked) [Example A154, N-(3-(3-((2,6-dioxo-piperidin-3-yl)amino)-1-methyl-1H-pyrazol-5-yl)prop-2-yn-1-yl)-5-((7-isopropyl-1,3-dimethyl-2-oxo-2,3-dihydro-1H-benzo [d]imidazol-5-yl) (methyl)amino)-5′-methyl-[2,3′-bipyridine]-6′-carboxamide]
7 | > 80 | 10 to 99 | CCc1cc(N(C)c2ccc(-c3cnc(C(=O)NCC#Cc4cccc(NC5CCC(=O)NC5=O)c4)c(C)c3)c(F)c2)c2cc(C)c(=O)n(C)c2c1 (centres unmarked) [Example B19, N-(3-(3-((2,6-Dioxopiperidin-3-yl)amino)phenyl)prop-2-yn-1-yl)-5-(4-((7-ethyl-1,3-dimethyl-2-oxo-1,2-dihydroquinolin-5-yl)(methyl)amino)-2-fluorophenyl)-3-methylpicolinamide]
8 | > 80 | 10 to 99 | Cc1cc(-c2ccc(N(C)c3cc(C(C)C)c4c(c3)n(C)c(=O)n4C)cc2C(F)F)cnc1C(=O)NCC#Cc1cccc(NC2CCC(=O)NC2=O)c1 (centres unmarked) [Example A41, 5-(2-(difluoromethyl)-4-((7-isopropyl-1,3-dimethyl-2-oxo-2,3-dihydro-1H-benzo[d]imidazol-5-yl) (methyl)amino)phenyl)-N-(3-(3-((2,6-dioxopiperidin-3-yl)amino)phenyl)-prop-2-yn-1-yl)-3-methylpicolinamide]
9 | > 80 | 1 to 9.9 | Cc1cc(-c2ncc(N(C)c3cc(C4CCOCC4)c4c(c3)n(C)c(=O)n4C)cn2)cnc1C(=O)NCC#Cc1cc2c(C3CCC(=O)NC3=O)nccc2o1 (centres unmarked) [Example A168, 5-(5-((1,3-dimethyl-2-oxo-7-(tetrahydro-2H-pyran-4-yl)-2,3-dihydro-1H-benzo[d]imidazol-5-yl)(methyl)amino)pyrimidin-2-yl)-N-(3-(4-(2,6-dioxopiperidin-3-yl)furo[3,2-c]pyridin-2-yl)prop-2-yn-1-yl)-3-methylpicolinamide]
10 | > 80 | 1 to 9.9 | Cc1cc2c(N3CCCc4nc(-c5cnc(C(=O)NCC#Cc6ccc7occ(C8CCC(=O)NC8=O)c7c6)c(Cl)c5)ncc43)cccc2n(C)c1=O (centres unmarked) [Example B155, 3-chloro-5-(5-(1,3-dimethyl-2-oxo-1,2-dihydroquinolin-5-yl)-5,6,7,8-tetrahydro-pyrido[3,2-d]pyrimidin-2-yl)-N-(3-(3-(2,6-dioxopiperidin-3-yl)benzofuran-5-yl)prop-2-yn-1-yl)picolinamide]
11 | > 80 | 1 to 9.9 | CCc1cc(-c2ncc3c(n2)CCCN3c2cc(C3CCOCC3)cc3c2cc(C)c(=O)n3C)cnc1C(=O)NCC#Cc1ccc2occ(C3CCC(=O)NC3=O)c2c1 (centres unmarked) [Example B144, 5-(5-(1,3-dimethyl-2-oxo-7-(tetrahydro-2H-pyran-4-yl)-1,2-dihydroquinolin-5-yl)-5,6,7,8-tetrahydropyrido[3,2-d]pyrimidin-2-yl)-N-(3-(3-(2,6-dioxopiperidin-3-yl)benzofuran-5-yl)prop-2-yn-1-yl)-3-ethylpicolinamide]
12 | > 80 | 1 to 9.9 | Cc1cc(-c2ncc(N(C)c3cc(C(C)C)c4c(c3)n(C)c(=O)n4C)cn2)cnc1C(=O)NCC#Cc1ccc2occ(C3CCC(=O)NC3=O)c2c1 (centres unmarked) [Example A156, N-(3-(3-(2,6-dioxo-piperidin-3-yl)benzofuran-5-yl)prop-2-yn-1-yl)-5-(5-((7-isopropyl-1,3-dimethyl-2-oxo-2,3-dihydro-1H-benzo [d]imidazol-5-yl)(methyl)amino)pyrimidin-2-yl)-3-methylpicolinamide]
13 | > 80 | 1 to 9.9 | [2H]C([2H])([2H])N(c1cnc(-c2cnc(C(=O)NCC#Cc3ccc4occ(C5CCC(=O)NC5=O)c4c3)c(C)c2)nc1)c1cc(C2CCOCC2)c2c(c1)n(C)c(=O)n2C (centres unmarked) [Example A82, 5-(5-((1,3-dimethyl-2-oxo-7-(tetrahydro-2H-pyran-4-yl)-2,3-dihydro-1H-benzo [d]imidazol-5-yl) (methyl-d3)amino)pyrimidin-2-yl)-N-(3-(3-(2,6-dioxo-piperidin-3-yl)benzofuran-5-yl)prop-2-yn-1-yl)-3-methylpicolinamide]
14 | > 80 | 1 to 9.9 | Cc1cc(-c2ncc3c(n2)CCCN3c2nc(N3CCOCC3)cc3c2cc(C)c(=O)n3C)cnc1C(=O)NCC#Cc1cc2c(C3CCC(=O)NC3=O)cccc2o1 (centres unmarked) [Example B89, 5-(5-(1,3-dimethyl-7-morpholino-2-oxo-1,2-dihydro-1,6-naphthyridin-5-yl)-5,6,7,8-tetrahydropyrido[3,2-d]pyrimidin-2-yl)-N-(3-(4-(2,6-dioxopiperidin-3-yl)benzofuran-2-yl)prop-2-yn-1-yl)-3-methylpicolinamide]
15 | 20 to 39 | 1 to 9.9 | Cc1cc2c(N3CCCc4nc(-c5ccc6c(c5)C(=O)N(CC#Cc5ccc7occ(C8CCC(=O)NC8=O)c7c5)C6)ncc43)cc(C3CCOCC3)cc2n(C)c1=O (centres unmarked) [Example B44, 3-(5-(3-(6-(5-(1,3-dimethyl-2-oxo-7-(tetrahydro-2H-pyran-4-yl)-1,2-dihydroquinolin-5-yl)-5,6,7,8-tetrahydropyrido[3,2-d]pyrimidin-2-yl)-1-oxoisoindolin-2-yl)prop-1-yn-1-yl)benzofuran-3-yl)piperidine-2,6-dione]
16 | > 80 | 1 to 9.9 | Cc1cc(-c2ncc3c(n2)CCCN3c2ccc3c(c2)n(C)c(=O)n3C)cnc1C(=O)NCC#Cc1cc2c(C3CCC(=O)NC3=O)cccc2o1 (centres unmarked) [Example A231, 5-(5-(1,3-dimethyl-2-oxo-2,3-dihydro-1H-benzo[d]imidazol-5-yl)-5,6,7,8-tetra-hydropyrido[3,2-d]pyrimidin-2-yl)-N-(3-(4-(2,6-dioxo-piperidin-3-yl)benzofuran-2-yl)prop-2-yn-1-yl)-3-methylpicolinamide]
17 | > 80 | < 1 | Cc1cc2c(N3CCN(C)c4cc(-c5ccc(C(=O)NCC#Cc6ccc7occ(C8CCC(=O)NC8=O)c7c6)nc5)ncc43)cc(C3CCOCC3)cc2n(C)c1=O (centres unmarked) [Example B31, 5-(4-(1,3-dimethyl-2-oxo-7-(tetrahydro-2H-pyran-4-yl)-1,2-dihydroquinolin-5-yl)-1-methyl-1,2,3,4-tetrahydropyrido[3,4-b]pyrazin-7-yl)-N-(3-(3-(2,6-dioxopiperidin-3-yl)benzofuran-5-yl)prop-2-yn-1-yl) picolinamide]
18 | > 80 | 1 to 9.9 | CCc1cc(N(C)c2ccn(-c3cnc(C(=O)NCC#Cc4cccc(NC5CCC(=O)NC5=O)c4)c(C)c3)c(=O)c2)c2cc(C)c(=O)n(C)c2c1 (centres unmarked) [Example B152, N-(3-(3-((2,6-dioxopiperidin-3-yl)amino)phenyl)prop-2-yn-1-yl)-4-((7-ethyl-1,3-dimethyl-2-oxo-1,2-dihydroquinolin-5-yl) (methyl)amino)-5′-methyl-2-oxo-2H-[1,3′-bipyridine]-6′-carboxamide]
19 | < 20 | > 1000 | Cc1cc2c(N3CCCc4nc(-c5ccc(C(=O)NCC#Cc6ccc7occ(C8(C)CCC(=O)NC8=O)c7c6)nc5)ncc43)cc(C3CCOCC3)cc2n(C)c1=O (centres unmarked) [Example B85, 5-(5-(1,3-dimethyl-2-oxo-7-(tetrahydro-2H-pyran-4-yl)-1,2-dihydroquinolin-5-yl)-5,6,7,8-tetrahydropyrido[3,2-d]pyrimidin-2-yl)-N-(3-(3-(3-methyl-2,6-dioxopiperidin-3-yl)benzofuran-5-yl)prop-2-yn-1-yl)picolinamide]
